Source: patent US12024707B2, “Methods and compositions for modulating lncRNAs and methods of treatment based on lncRNA expression” (Washington University, priority 2020, dated 2024)

Legend:
[1] = tested on: RAMS11-overexpressing (RAMS11) HT29 cells; experiment: Tail vein lung metastasis model, 5FU treatment, BLI imaging, RAMS11-overexpressing cells; type: in vivo, NOD scid mice; details: RAMS11 cell-injected mice, 50 mg/kg 5FU
Method: (§1) To determine if cells with high RAMS11 expression promote resistance to fluorouracil (5FU) treatment, 9-week-old female NOD scid mice were injected with 1 e6 wildtype (WT) or RAMS11-overexpressing (RAMS11) HT29 cells (with GFP-luciferase incorporated) via the tail vein, a common model of lung metastasis^13. Seventy-two hours after tumor cell injection mice were subcutaneously treated with vehicle (PBS) or 50 mg/kg 5FU and imaged weekly. […] Further, high expression of RAMS11 promoted resistance to treatment with 5FU.

[2] = tested on: HT29 RAMS11 overexpressing cells; experiment: High-throughput viability assay (resazurin), 119 FDA-approved anticancer drugs, RAMS11 overexpressing cells (Clone1, Clone2); details: 72 h, vs empty vector control
Method: (§3) The FDA-approved anticancer panel included multiple classes of drugs such as kinase inhibitors, alkylating agents, antineoplastic antibiotics, anthracycline antibiotics, and antineoplastic agents (topoisomerase inhibitors). The HT29 RAMS11 overexpressing and control cells were treated for 72 h to assess cellular viability upon drug treatment (FIG. 14a and TABLE 3). […] Due to 5-FU commonly used to treat mCRC, we further determined if RAMS11 expression altered drug sensitivity in treated cells.
(§4) Drugs were diluted in DMSO to 1 mM and the well assignments were rearranged so drugs were confined to the inner 60 wells of 96-well plates. […] The next day serial diluted drug was added to pre-seeded plates in media containing 1% DMSO vehicle, using a Robbins Hydra 96 micro dispenser. Two 96-well plates of cells were used as vehicle controls. The plates were incubated for 3 days. Percent viability was scored by incubating cells for 3 h with resazurin sodium (0.023 mg/mL, Sigma R7017). The reaction was stopped by the addition of SDS (1% final concentration). Fluorescence Ex/Em 540/590 was read in a Biotek Synergy H1 plate reader (Winooski, VT). The fluorescence values for the vehicle plates were averaged and percent viability was determined by the formula: Percent viability=(average vehicle−value)/(average vehicle−average resazurin in media blank)×100. […] Assays were repeated more than three times.

[3] = tested on: LoVo RAMS11 CRISPR KO cells; experiment: Individual drug IC50 / cell viability assays in RAMS11 CRISPR KO cells; type: cell-based
Method: The NIH approved oncology library of 119 drugs (AOD6 plate 4825-1 and AOD6 plate 4826) was received from the NIH National Cancer Institute DTP Developmental Therapeutics Program. Drugs were diluted in DMSO to 1 mM and the well assignments were rearranged so drugs were confined to the inner 60 wells of 96-well plates. HT29 RAMS11 overexpressing Clone1 and Clone2 cell lines were seeded at 5000 cells per well in a 96-well plate. The next day serial diluted drug was added to pre-seeded plates in media containing 1% DMSO vehicle, using a Robbins Hydra 96 micro dispenser. Two 96-well plates of cells were used as vehicle controls. The plates were incubated for 3 days. Percent viability was scored by incubating cells for 3 h with resazurin sodium (0.023 mg/mL, Sigma R7017). The reaction was stopped by the addition of SDS (1% final concentration). Fluorescence Ex/Em 540/590 was read in a Biotek Synergy H1 plate reader (Winooski, VT). The fluorescence values for the vehicle plates were averaged and percent viability was determined by the formula: Percent viability=[…]/(average vehicle−average resazurin in media blank)×100. We removed drugs that were undetectable, or out of range, by resazurin assay, leaving 118 drugs to assess in the study (TABLE 3). Values with more than a 1.5-fold change in both RAMS11 Clone1 and Clone2 overexpressing cell lines were used to determine significance. Individual drug IC50 assays were done in a similar manner as described above with CRISPR KO cells. Assays were repeated more than three times.

[4] = tested on: wildtype (WT) HT29 cells; experiment: Tail vein lung metastasis model, 5FU treatment, BLI imaging, wildtype cells; type: in vivo, NOD scid mice; details: WT cell-injected mice, 50 mg/kg 5FU, Week 3
Method: as §1

[5] = tested on: SW620 cells with silenced RAMS11; experiment: Drug IC50 / cell viability assays in cells with transient silencing of RAMS11
Method: as §3, §4

[6] = tested on: RAMS11; experiment: RAMS11 knockdown by ASOs, qPCR; type: cell-based; details: in vivo optimized LNA GapmeR ASOs
Excerpt: (§2) Exiqon's locked nucleic acid (LNA) GapmeRs antisense oligonucleotides (ASOs) were used. They contain a central stretch (gap) of monomers flanked by blocks of LNA modified nucleotides that (i) increase the target affinity and nuclease resistance of the oligo and (ii) the gap activates RNase H cleavage of the target RNA upon binding. The LNATM oligonucleotides can be designed for any region of the target RNA sequence. In addition, the design flexibility afforded by LNATM means that it is possible to design multiple LNATM antisense oligonucleotides to the same target sequence, which serve as useful experimental controls. […] NO: 41) and […] NO: 42). Total RNA was isolated for each CRC cell line using Takara Bio NucleoSpin RNA (Takara, Mountain View, CA). Total RNA was then transcribed to cDNA with SuperScript Ill First strand cDNA system (Invitrogen) and quantified using Fast Sybr Green Master Mix (Invitrogen) as per the manufacturer's protocol. Primer sequences are available in TABLE 5.

[7] = tested on: LoVo cells; type: cell-based
Excerpt: as §2, with “42).” for “42). Total RNA was isolated for each CRC cell line using Takara Bio NucleoSpin RNA (Takara, Mountain View, CA). Total RNA was then transcribed to cDNA with SuperScript Ill First strand cDNA system (Invitrogen) and quantified using Fast Sybr Green Master Mix (Invitrogen) as per the manufacturer's protocol. Primer sequences are available in TABLE 5.”

For `O=c1[nH]cc(F)c(=O)[nH]1` [5-FU, fluorouracil, reference compound], the “change between vehicle and 5FU-treated mice, in vivo and ex vivo lung BLI” value [1] was “no significant change”, the “Viability Fold Change” value ([2]; OE1 (RAMS11 overexpression clone 1), 0.1 uM drug) was 0.9856 and the “Viability Fold Change” value ([2]; OE1 (RAMS11 overexpression clone 1), 1 uM drug) was 0.9553. For the same molecule, the “Viability Fold Change” value ([2]; OE1 (RAMS11 overexpression clone 1), 10 uM drug) was 0.9891, the “Viability Fold Change” value ([2]; OE2 (RAMS11 overexpression clone 2), 0.1 uM drug) was 0.9406 and the “Viability Fold Change” value ([2]; OE2 (RAMS11 overexpression clone 2), 1 uM drug) was 0.9417. The “Viability Fold Change” value ([2]; OE2 (RAMS11 overexpression clone 2), 10 uM drug) was 1.021, the “increase in drug sensitivity” value ([3]; LoVo RAMS11 CRISPR1 compared with wild-type cells) was 1.7 fold and the “increase in drug sensitivity” value ([3]; LoVo RAMS11 CRISPR2 compared with wild-type cells) was 5.8 fold. The “decrease in ex vivo BLI of lung tissue” value [4] was 55%, the “increase in drug sensitivity” value ([5]; SW620, RAMS11 siRNA1 relative to scrambled control) was greater than 1.53 fold and the “increase in drug sensitivity” value ([5]; SW620, RAMS11 siRNA2 relative to scrambled control) was greater than 1.59 fold.

In the case of “ASO #1: LNA GapmeR antisense oligonucleotide against RAMS11: CAACTTCCAGCAAGAT (SEQ ID NO: 41) (LNA gapmer, pattern not given here)”, the RAMS11 knockdown [6] is reported as “most potent” and the cell viability [7] is reported as “do not alter cell viability”.

For “ASO #2: LNA GapmeR antisense oligonucleotide against RAMS11: AGAACTGCTAAAAGTG (SEQ ID NO: 42) (LNA gapmer, pattern not given here)”, the RAMS11 knockdown [6] was “most potent” and the cell viability [7] was “do not alter cell viability”.
